According to US20090227487A1, “METHODS FOR THE CONTROL OF MACROPHAGE-ASSOCIATED INFLAMMATION” (priority 2008, published 2009):

How the values were obtained:
Format in all cases: cell-based, murine
Raw 264.7 macrophages [1] = assay: PMMA particle-induced TNF-α release from macrophages preincubated with MyD88 inhibitory peptide or control peptide (ELISA); conditions: 100 μM peptide, 24 h preincubation, PMMA particles 0.30% v/v, p<0.01
Experimental: MyD88 inhibitory peptide experiments: The murine monocyte/macrophage cell line Raw 264.7 was cultured in DMEM containing 10% (v/v) FBS (5% CO2, 37° C.). Cells were plated in 24-well tissue culture plates at 1×10^5 cells/well in 1 ml of media with serum and allowed to adhere for 24 hours. […] Following the preincubation period in each group, PMMA particles (Polysciences, 1-10 μm) were added at a dose of 0.30% v/v. Each group was plated in triplicate and the experiment was repeated three times.
Quantification of TNF-α release: Macrophages were exposed to PMMA particles and samples from the culture media were collected at 1, 4, and 12 hours post challenge. TNF-α levels were quantified using ELISA kits. Data were analyzed by ANOVA.
(§1) Preparation of particles: PMMA particles were washed 5× with 70% ethanol and incubated overnight with shaking at 4° C. The particles were then washed 3× with DPBS and resuspended to a concentration of 16% v/v. The particles were free of endotoxin using a high-sensitivity Limulus amoebocyte lysate assay (BioWhittaker).

Raw 264.7 macrophages [2] = assay: PMMA particle-induced TNF-α release from macrophages with or without polymyxin B (ELISA); conditions: 0.30% PMMA particles plus 10 μg/ml polymyxin B
Experimental: as §1
(§2) Polymyxin B preparation: Polymyxin B was prepared fresh before each use and added to cell cultures at a concentration of 10 μg/ml.
Quantification of TNF-α release with wear debris particles: Macrophages were cultured as above. The media was then replaced with 1 ml of media containing one of three conditions: 1) media alone; 2) PMMA particles at a dose of 0.30% v/v; 3) 0.30% PMMA particles plus 10 μg/ml of polymyxin B. TNF-α levels were measured at 1, 4, and 12 hours post challenge.

Raw 264.7 macrophages [3] = assay: LPS-induced TNF-α release from macrophages with or without polymyxin B (ELISA); conditions: 12 h
Experimental: as §2
Raw264.7 macrophage cell culture experiments: The murine monocyte/macrophage cell line Raw 264.7 was cultured in DMEM containing 10% (v/v) FBS (5% CO2, 37° C.). Cells were plated in 24-well tissue culture plates at 1×10^5 cells/well in 1 ml of media with serum and allowed to adhere for 24 hours. The media was then replaced with 1 ml of media containing one of four conditions: 1) media alone; 2) 10 μg/ml of polymyxin B; 3) 500 pg/ml of LPS (E. coli 055:B5, Sigma); 4) 500 pg/ml LPS and 10 μg/ml polymyxin B. TNF-α release was measured at 12 h after incubation using ELISA. Each group was plated in triplicate and the experiment was repeated two times. Data were analyzed by ANOVA. A p-value <0.05 was considered significant.

Row | Substance | decrease of particle-induced TNF-α release (Raw 264.7 macrophages [1]; 4 h post challenge) [%] | decrease of particle-induced TNF-α release (Raw 264.7 macrophages [1]; 12 h post challenge) [%] | effect on particle-induced TNF-α release (Raw 264.7 macrophages [2]; 4 h) | decrease of particle-induced TNF-α release (Raw 264.7 macrophages [2]; 12 h, non-significant) [%] | effect on particle-induced TNF-α release (Raw 264.7 macrophages [2]; overall statement) | TNF-α levels (Raw 264.7 macrophages [3]; 500 pg/ml LPS plus 10 μg/ml polymyxin B) [pg/mL] | TNF-α release compared to macrophages alone (Raw 264.7 macrophages [3]; 10 μg/ml polymyxin B alone, no LPS)
1 | MyD88 inhibitory peptide: MyD88 homodimerization inhibitory peptide (Imgenex), which binds the MyD88 monomer, blocking MyD88 activation; possibly DRQIKIWFQNRRMKWKKRDVLPGT of b57 | 63 | 32 |  |  |  |  | 
2 | Polymyxin B |  |  | did not alter | 25 | no significant effect | 1120 | no significant difference
